A value given as a limit tells only on which side of the number the result lay.

We go through 13 compounds from US20080045525A1, “Piperazinyl-Pyridine Analogues” (priority 2004, published 2008).

One experiment deals with T1, human capsaicin receptor (Homo sapiens, UniProt Q8NER1).
T1 construct: transfected with the pBK-CMV expression construct encoding the full length human capsaicin receptor; expressed in transfected cells
T1 sequence (Q8NER1 whole entry): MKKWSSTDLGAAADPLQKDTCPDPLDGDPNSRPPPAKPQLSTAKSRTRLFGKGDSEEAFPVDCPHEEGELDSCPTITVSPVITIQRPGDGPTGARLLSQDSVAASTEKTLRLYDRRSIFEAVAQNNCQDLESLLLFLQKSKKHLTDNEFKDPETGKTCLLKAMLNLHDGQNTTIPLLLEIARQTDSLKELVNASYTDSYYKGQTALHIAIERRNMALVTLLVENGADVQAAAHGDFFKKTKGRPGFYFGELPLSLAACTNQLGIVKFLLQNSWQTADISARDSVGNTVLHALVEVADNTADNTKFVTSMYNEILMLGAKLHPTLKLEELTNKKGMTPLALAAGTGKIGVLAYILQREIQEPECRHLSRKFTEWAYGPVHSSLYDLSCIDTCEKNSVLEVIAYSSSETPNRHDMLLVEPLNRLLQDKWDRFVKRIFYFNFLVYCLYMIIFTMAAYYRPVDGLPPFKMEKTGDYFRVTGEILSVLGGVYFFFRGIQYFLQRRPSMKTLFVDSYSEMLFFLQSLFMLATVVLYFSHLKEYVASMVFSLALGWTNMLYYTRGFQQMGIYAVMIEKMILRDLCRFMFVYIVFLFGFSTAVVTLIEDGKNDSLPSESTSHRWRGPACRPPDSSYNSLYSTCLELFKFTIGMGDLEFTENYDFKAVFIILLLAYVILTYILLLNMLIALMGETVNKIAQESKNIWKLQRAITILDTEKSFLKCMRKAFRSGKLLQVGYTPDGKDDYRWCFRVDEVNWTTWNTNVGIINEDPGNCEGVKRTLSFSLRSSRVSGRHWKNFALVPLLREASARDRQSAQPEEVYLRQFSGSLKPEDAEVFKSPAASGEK
The experiment in a line: Calcium mobilization assay, determination of antagonist activity. The experiment is classed as cell-based. The settings on record: cells expressing human capsaicin receptor; capsaicin at its EC50; FLUO-3 fluorescence. Here is the method:
A cDNA encoding full length human capsaicin receptor (SEQ ID NO:1, 2 or 3 of U.S. Pat. No. 6,482,611) was subcloned in the plasmid pBK-CMV (Stratagene, La Jolla, Calif.) for recombinant expression in mammalian cells.
Human embryonic kidney (HEK293) cells were transfected with the pBK-CMV expression construct encoding the full length human capsaicin receptor using standard methods. The transfected cells were selected for two weeks in media containing G418 (400 μg/ml) to obtain a pool of stably transfected cells. Independent clones were isolated from this pool by limiting dilution to obtain clonal stable cell lines for use in subsequent experiments.
(§1) Cells transfected with expression plasmids (as described in Example 4) and thereby expressing human capsaicin receptor are seeded and grown to 70-90% confluency in FALCON black-walled, clear-bottomed 96-well plates (#3904, BECTON-DICKINSON, Franklin Lakes, N.J.). The culture medium is emptied from the 96 well plates and FLUO-3 AM calcium sensitive dye (Molecular Probes, Eugene, Oreg.) is added to each well (dye solution: 1 mg FLUO-3 AM, 440 μL DMSO and 440 μl 20% pluronic acid in DMSO, diluted 1:250 in Krebs-Ringer HEPES (KRH) buffer (25 mM HEPES, 5 mM KCl, 0.96 mM NaH2PO4, 1 mM MgSO4, 2 mM CaCl2, 5 mM glucose, 1 mM probenecid, pH 7.4), 50 μl diluted solution per well). Plates are covered with aluminum foil and incubated at 37° C. for 1-2 hours in an environment containing 5% CO2. After the incubation, the dye is emptied from the plates, and the cells are washed once with KRH buffer, and resuspended in KRH buffer.
To measure the ability of a test compound to agonize or antagonize a calcium mobilization response in cells expressing capsaicin receptors to capsaicin or other vanilloid agonist, the EC50 of the agonist capsaicin is first determined. An additional 20 μl of KRH buffer and 1 μl DMSO is added to each well of cells, prepared as described above. 100 μl capsaicin in KRH buffer is automatically transferred by the FLIPR instrument to each well. Capsaicin-induced calcium mobilization is monitored using either FLUOROSKAN ASCENT (Labsystems; Franklin, Mass.) or FLIPR (fluorometric imaging plate reader system; Molecular Devices, Sunnyvale, Calif.) instruments. Data obtained between 30 and 60 seconds after agonist application are used to generate an 8-point concentration response curve, with final capsaicin concentrations of 1 nM to 3 μM. […] software (Synergy Software, Reading, Pa.) is used to fit the data to the equation: y=a*(1/(1+(b/x)^c)) to determine the 50% excitatory concentration (EC50) for the response. In this equation, y is the maximum fluorescence signal, x is the concentration of the agonist or antagonist (in this case, capsaicin), a is the Emax, b corresponds to the EC50 value and c is the Hill coefficient. Determination of Agonist Activity
Test compounds are dissolved in DMSO, diluted in 20 μl KRH buffer so that the final concentration of test compounds in the assay well is between 1 μM and 5 μM, and added to cells prepared as described above. The 96 well plates containing prepared cells and test compounds are incubated in the dark, at room temperature for 0.5 to 6 hours. It is important that the incubation not continue beyond 6 hours. Just prior to determining the fluorescence response, 100 μl capsaicin in KRH buffer at twice the EC50 concentration determined as described above is automatically added by the FLIPR instrument to each well of the 96 well plate for a final sample volume of 200 μl and a final capsaicin concentration equal to the EC50. The final concentration of test compounds in the assay wells is between 1 μM and 5 μM.
For orientation: Calcium assays in cells follow changes in intracellular calcium, usually with a dye or a luminescent sensor.
The IC50 is the midpoint of a concentration-inhibition curve. On to `Cc1cc(C(=O)O)cnc1N1CCN(c2cc(N3CCC(F)CC3)nc(N3CCCC3C)n2)[C@H](C)C1` (stereo partly shown) [6-{4-[6-(4-fluoropiperidin-1-yl)-2-(2-methylpyrrolidin-1-yl)pyrimidin-4-yl]-3-methylpiperazin-1-yl}-5-methylnicotinic acid], for which the IC50 was no more than 1 µM.

On to `Cc1cc(C(=O)O)cnc1N1CCN(c2cc(N3CCCCC3)nc(N3CCCC3C)n2)[C@H](C)C1` (stereo partly shown) [5-methyl-6-{3-methyl-4-[2-(2-methylpyrrolidin-1-yl)-6-piperidin-1-ylpyrimidin-4-yl]piperazin-1-yl}nicotinic acid], for which the IC50 is no more than 1 µM.

Regarding `Fc1ccc2c(c1)CCN2c1cc(N2CCN(c3ncccc3C(F)(F)F)CC2)nc(N2CCOCC2)n1` [5-fluoro-1-(2-morpholin-4-yl-6-{4-[3-(trifluoromethyl)pyridin-2-yl]piperazin-1-yl}pyrimidin-4-yl)indoline], the IC50 was no more than 1 µM.

`Cc1cc(CO)cnc1N1CCN(c2cc(N3CCCCC3)nc(N3CCCC3C)n2)[C@H](C)C1` (stereo partly shown) [(5-methyl-6-{3-methyl-4-[2-(2-methylpyrrolidin-1-yl)-6-piperidin-1-ylpyrimidin-4-yl]piperazin-1-yl}pyridin-3-yl)methanol]: the IC50 was no more than 1 µM.

For `FC(F)(F)c1cccnc1N1CCN(c2cc(N3CCC4(CC3)OCCO4)nc(N3CCOCC3)n2)CC1` [8-(2-morpholin-4-yl-6-{4-[3-(trifluoromethyl)pyridin-2-yl]piperazin-1-yl}pyrimidin-4-yl)-1,4-dioxa-8-azaspiro[4.5]decane], the IC50 was no more than 1 µM.

As to `FC(F)(F)c1cccnc1N1CCN(c2cc(N3CCCC3)nc(N3CCOCC3)n2)CC1` [4-(4-pyrrolidin-1-yl-6-{4-[3-(trifluoromethyl)pyridin-2-yl]piperazin-1-yl}pyrimidin-2-yl)morpholine], the IC50 is no more than 1 µM.

`CCOC(=O)c1cnc(N2CCN(c3cc(N4CCCCC4)nc(N4CCCC4C)n3)[C@H](C)C2)c(C)c1` (stereo partly shown) [ethyl 5-methyl-6-{3-methyl-4-[2-(2-methylpyrrolidin-1-yl)-6-piperidin-1-ylpyrimidin-4-yl]piperazin-1-yl}nicotinate]: the IC50 is no more than 1 µM.

Turning to `FC(F)(F)c1cccnc1N1CCN(c2cc(N3CCOCC3)nc(N3CCOCC3)n2)CC1` [4,4′-(6-{4-[3-(trifluoromethyl)pyridin-2-yl]piperazin-1-yl}pyrimidine-2,4-diyl)dimorpholine], the IC50 is no more than 1 µM.

For the compound `Cc1cc(C(N)=O)cnc1N1CCN(c2cc(N3CCCCC3)nc(N3CCCC3C)n2)[C@H](C)C1` (stereo partly shown) [5-methyl-6-{3-methyl-4-[2-(2-methylpyrrolidin-1-yl)-6-piperidin-1-ylpyrimidin-4-yl]piperazin-1-yl}nicotinamide], the IC50 is no more than 1 µM.

As to `FC(F)(F)c1cccnc1N1CCN(c2cc(N3CCCCC3)nc(N3CCOCC3)n2)CC1` [4-(4-piperidin-1-yl-6-{4-[3-(trifluoromethyl)pyridin-2-yl]piperazin-1-yl}pyrimidin-2-yl)morpholine], the IC50 was no more than 1 µM.

For the compound `OCCC1CCN(c2cc(N3CCN(c4ncccc4C(F)(F)F)CC3)nc(N3CCOCC3)n2)CC1` [2-[1-(2-morpholin-4-yl-6-{4-[3-(trifluoromethyl)pyridin-2-yl]piperazin-1-yl}pyrimidin-4-yl)piperidin-4-yl]ethanol], the IC50 was no more than 1 µM.

A further experiment concerns the target T1, human capsaicin receptor. The experiment can be described thus: Calcium mobilization assay, agonist response (capsaicin positive control). The experiment is classed as cell-based. The settings on record: capsaicin as positive control in cells expressing human capsaicin receptor; read-out: approximate EC90 concentration. The protocol: as §1, with “Plates are covered with aluminum foil and incubated at 37° C. for 1-2 hours in an environment containing 5% CO2. After the incubation, the dye is emptied from the plates, and the cells are washed once with KRH buffer, and resuspended in KRH buffer.” left out
To measure the ability of a test compound to agonize or antagonize a calcium mobilization response in cells expressing capsaicin receptors to capsaicin or other vanilloid agonist, the EC50 of the agonist capsaicin is first determined. […] Capsaicin-induced calcium mobilization is monitored using either FLUOROSKAN ASCENT (Labsystems; Franklin, Mass.) or FLIPR (fluorometric imaging plate reader system; Molecular Devices, Sunnyvale, Calif.) instruments. […] In this equation, y is the maximum fluorescence signal, x is the concentration of the agonist or antagonist (in this case, capsaicin), a is the Emax, b corresponds to the EC50 value and c is the Hill coefficient. […]
Take `COc1cc(CNC(=O)CCCC/C=C/C(C)C)ccc1O` [capsaicin]: the EC90 was roughly 0.1 µM.

The target of a further experiment is VR.
Assay: not given
The settings on record: typical value, non-selective cation channel blocker; cited from earlier work.
As a reminder, the Ki is a dissociation constant, usually derived from enzyme kinetics or from competition with a known ligand. As for `Cl.Cl.Cl.Cl.Cl.Cl.N.N.N.N.N.N.N.N.N.N.N.N.N.N.[O-2].[O-2].[Ru+3].[Ru+3].[Ru+4]` [ruthenium red], the Ki was no less than 140 µM.
